The target of one assay is T1, PARP2 (Homo sapiens, UniProt Q9UGN5).
T1 construct: made in house
Description: biochemical. The assay is classed as biochemical. The method, then: All starting materials, reagents, and solvents were purchased from common commercial suppliers and were used as such without further purification. […] Organic solutions were dried over anhydrous Na2SO4 and concentrated with rotary evaporator at low pressure. All the reactions were routinely checked by thin-layer chromatography (TLC) on silica gel 60F254 (Merck) and visualized by using UV and iodine. Flash chromatography separations were carried out on Merck silica gel 60 (mesh 230-400) or by using automated Buchi Reveleris X2-UV with column FP Ecoflex Si 12 g. Yields were of purified products and were not optimized. ^1HNMR spectra were recorded at 400 MHz (Bruker Avance DRX-400), while ^13CNMR spectra were recorded at 101 MHz (Bruker Avance DRX-400). Chemical shifts are given in ppm (δ) relative to TMS. […] Mating constant (J) are reported in Hz. The purity of the tested compounds was evaluated by HPLC analysis using Jasco LC-4000 instrument equipped with a UV-Visible Diode Array Jasco-MD4015 (Jasco Corporation, Tokyo, Japan), and XTerra MS C18 column, 5 μm×4.6 mm×150 mm (Waters Corporation, Massachusetts, USA). Chromatograms were analyzed by ChromNAV2.0 Chromatography Data System software. […] The peak retention time (ret. time) is given in minutes. […] 1-Isobutoxy-4-methoxy-2-nitrobenzene (113). Isobutyl alcohol (0.6 mL, 6.43 mmol) was added, under nitrogen atmosphere at 0° C., to a suspension of NaH (0.26 g, 6.43 mmol) in dry DMF. After 15 minutes, 1-fluoro-4-methoxy-2-nitrobenzene 112 (1 g, 5.84 mmol) was also added and the reaction mixture was stirred at 80° C. for 4 h. […] (2-Isobutoxy-5-methoxyphenyl)amine (114). Zn (1.57 g, 24 mmol) and NH4C1 (2.45 g, 40 mmol) were added to a solution of 113 (0.46 g, 2 mmol) in acetone/H2O (50 mL, ratio 5:1). The reaction mixture was stirred at 60° C. for 3 h and, then, it was filtered over celite. […] N-(2,5-diethoxyphenyl)thiourea (55). […] N-(2-isobutoxy-5-methoxyphenyl)thiourea (115). […] A solution of Br2 (0.2 mL, 3.3 mmol) in CHCl3 (5 mL) was slowly added to a suspension of 45 (0.6 g, 3.3 mmol) in CHCl3 (13 mL), at 0° C. The reaction mixture was stirred at r.t. for 4 h and, then, a 10% solution of Na2SO3 in water was added to the mixture. […] 4,7-Diethoxy-1,3-benzothiazol-2-amine (66). […] 4-Isobutoxy-7-methoxy-1,3-benzothiazol-2-amine (116). […] Hydrazine hydrate (0.23 mL, 4.77 mmol) and CH3COOH (0.12 mL, 2.1 mmol) were added to a suspension of 56 (0.29 g, 1.59 mmol) in ethylene glycol (8 mL), and the reaction mixture was stirred for 24 h at 125° C. […] 6-Ethyl-2-hydrazino-1,3-benzothiazole (69). […] 6-Ispropyl-2-hydrazino-1,3-benzothiazole (70). […] 2-Hydrazino-4,7-dimethoxy-1,3-benzothiazole (73). […] 2-Hydrazino-5,7-dimethoxy-1,3-benzothiazole (75). […] 2-Hydrazino-4,7-Diethoxy-1,3-benzothiazole (77). […] 2-Hydrazino-5-methyl[1,3]thiazolo[5,4-b]pyridine (100). […] A solution of 67 (0.13 g, 0.65 mmol) in formic acid (5 mL) was refluxed for 10 h. The reaction mixture was then poured into ice/water and the pH was neutralized using a saturated solution of NaHCO3.

The target in a further assay is T2, TNKS2 (Homo sapiens, UniProt Q9H2K2).
T2 sequence (Q9H2K2 1-1166): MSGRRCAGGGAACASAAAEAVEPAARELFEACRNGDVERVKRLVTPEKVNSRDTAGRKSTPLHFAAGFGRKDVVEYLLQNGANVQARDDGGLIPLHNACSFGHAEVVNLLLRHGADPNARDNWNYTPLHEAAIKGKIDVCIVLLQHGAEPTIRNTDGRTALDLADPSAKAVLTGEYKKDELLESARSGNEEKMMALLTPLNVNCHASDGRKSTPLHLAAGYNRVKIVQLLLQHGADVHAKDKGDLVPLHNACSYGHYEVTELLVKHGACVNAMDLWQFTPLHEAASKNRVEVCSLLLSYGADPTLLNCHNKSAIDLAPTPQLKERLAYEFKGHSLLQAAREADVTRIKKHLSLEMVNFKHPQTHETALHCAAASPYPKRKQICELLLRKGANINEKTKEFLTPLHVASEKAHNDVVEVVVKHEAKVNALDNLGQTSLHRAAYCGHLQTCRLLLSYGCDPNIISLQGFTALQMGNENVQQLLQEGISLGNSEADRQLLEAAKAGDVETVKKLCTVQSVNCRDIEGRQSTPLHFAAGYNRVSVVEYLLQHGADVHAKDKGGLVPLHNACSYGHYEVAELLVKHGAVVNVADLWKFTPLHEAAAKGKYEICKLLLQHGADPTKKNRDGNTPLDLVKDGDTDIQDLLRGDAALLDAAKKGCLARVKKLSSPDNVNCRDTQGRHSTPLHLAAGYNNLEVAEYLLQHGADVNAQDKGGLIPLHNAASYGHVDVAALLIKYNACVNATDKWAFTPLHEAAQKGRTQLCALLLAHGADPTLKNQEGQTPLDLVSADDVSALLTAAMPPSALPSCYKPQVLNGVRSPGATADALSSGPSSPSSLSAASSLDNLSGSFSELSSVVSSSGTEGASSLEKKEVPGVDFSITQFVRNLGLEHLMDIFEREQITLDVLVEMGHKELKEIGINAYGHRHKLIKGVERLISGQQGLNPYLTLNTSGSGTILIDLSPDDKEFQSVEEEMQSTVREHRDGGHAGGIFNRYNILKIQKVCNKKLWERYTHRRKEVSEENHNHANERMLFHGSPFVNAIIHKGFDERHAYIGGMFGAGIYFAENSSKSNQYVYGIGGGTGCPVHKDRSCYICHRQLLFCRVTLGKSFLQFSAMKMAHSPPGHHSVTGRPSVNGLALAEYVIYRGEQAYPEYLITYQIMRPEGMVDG
Description: biochemical.

Where [1] appears, read: read-out: TNKS2 IC50, NAD+ consumption assay, > less than 50% inhibition at highest concentration, >> no inhibition.

These results are taken from patent US20250177359A1, “COMPOUNDS FOR USE IN THE TREATMENT OF CANCER AND INFLAMMATORY CONDITIONS” (priority 2022, published 2025).

The IC50 is the concentration at which inhibition is half-maximal.

Read-outs that look alike come from different tables or passages of the source.

T1 sequence (Q9UGN5 whole entry): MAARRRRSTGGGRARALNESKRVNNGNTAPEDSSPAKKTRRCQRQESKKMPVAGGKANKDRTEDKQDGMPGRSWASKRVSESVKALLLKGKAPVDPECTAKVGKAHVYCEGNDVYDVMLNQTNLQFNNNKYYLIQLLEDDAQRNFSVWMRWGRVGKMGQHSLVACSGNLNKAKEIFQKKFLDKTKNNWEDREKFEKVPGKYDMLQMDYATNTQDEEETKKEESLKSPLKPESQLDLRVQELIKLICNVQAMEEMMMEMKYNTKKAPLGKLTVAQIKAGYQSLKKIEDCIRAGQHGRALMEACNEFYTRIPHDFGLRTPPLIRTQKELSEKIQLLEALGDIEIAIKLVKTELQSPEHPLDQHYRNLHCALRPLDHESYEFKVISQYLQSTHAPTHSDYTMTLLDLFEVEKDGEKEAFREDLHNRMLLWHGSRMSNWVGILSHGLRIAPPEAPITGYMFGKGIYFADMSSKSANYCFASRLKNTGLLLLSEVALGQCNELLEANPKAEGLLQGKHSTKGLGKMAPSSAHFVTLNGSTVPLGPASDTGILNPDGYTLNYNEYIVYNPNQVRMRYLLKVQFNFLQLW

Consider `Oc1ccc2c(c1)sc1nncn12` [Compound 10], for which, at PARP2, the IC50 is 44 nM and the “PARP2 pIC50 ± SEM” value is recorded as “(7.44 ± 0.12)”. At TNKS2 (read-out: TNKS2 IC50, NAD+ consumption assay), the IC50 is 0.37 µM.
With `Cc1ccc2c(c1)sc1nnc(N)n12` [Compound 22, 7-Methyl[1,2,4]triazolo[3,4-b][1,3]benzothiazol-3-amine], the IC50 on TNKS2 (setting [1]) was determined as 5.7 µM.
`COc1ccc(OC)c2c1sc1nnc(N)n12` [Compound 28, 5,8-Dimethoxy[1,2,4]triazolo[3,4-b][1,3]benzothiazol-3-amine]: the IC50 on PARP2 (NAD+ consumption assay, > less than 50% inhibition at highest concentration, >> no inhibition) worked out at 10000 nM; at TNKS2 (setting [1]), 10 µM.
As for `Nc1nnc2sc3cc(O)ccc3n12` [Compound 109, 3-Amino[1,2,4]triazolo[3,4-b][1,3]benzothiazol-7-ol], the IC50 is 5 to 10 nM against PARP2 (NAD+ consumption assay) and approximately 0.2 µM at TNKS2.
